Key:
[1] = tested on: siRNA-transfected RWPE-1 cells; experiment: siRNA transfection (NLRP3 or AR knockdown) with qRT-PCR in RWPE-1 cells; format: cell-based, human; conditions: for AR level (mRNA) in NLRP3 siRNA-transfected cells / NLRP3 level (mRNA) in AR siRNA-transfected cells: DHT stimulation, with or without 100 μM MitoQ; for AR level (mRNA) in NLRP3 siRNA-transfected cells: FIG. 3D; for NLRP3 level (mRNA) in AR siRNA-transfected cells: FIG. 3E
Method: (§1) Total RNA was isolated using Easy-Blue® reagent (iNtRON Biotechnology, Inc., Gyeonggi, Korea) and transcribed into complementary DNA (cDNA) according to the manufacturer's instructions. Oligonucleotide primers (Table 1) were purchased from Bioneer Corporation (Daejeon, Korea). qRT-PCR was performed according to the known method.
The RWPE-1 cells were transfected with siRNA (Bioneer Corporation) or pmaxGFP™ vector using a 4D-Nucleofector™ system (Lonza, Basel, Switzerland). The following siRNA nucleotide sequences were used: NLRP3 siRNA, […]=tt(1-AS) (SEQ ID NO.: 39) and […]=tt (1-AA) (SEQ ID NO.: 40) and AR siRNA, […]=tt (6-AS) (forward) (SEQ ID NO.: 41) and […]=tt (6-AA) (reverse) (SEQ ID NO.: 42). After four hours of incubation, the cells were treated in the presence or absence of MitoQ 100 μM. The effect of NLRP3 or AR knockdown was detected using qRT-PCR.

[2] = biological target: T1, AR (PDB ID: 2AMA) (Homo sapiens, UniProt P10275); experiment: Docking simulation (AutoDock Vina v1.1.2) on AR
T1 sequence (P10275 664-920 limits assumed): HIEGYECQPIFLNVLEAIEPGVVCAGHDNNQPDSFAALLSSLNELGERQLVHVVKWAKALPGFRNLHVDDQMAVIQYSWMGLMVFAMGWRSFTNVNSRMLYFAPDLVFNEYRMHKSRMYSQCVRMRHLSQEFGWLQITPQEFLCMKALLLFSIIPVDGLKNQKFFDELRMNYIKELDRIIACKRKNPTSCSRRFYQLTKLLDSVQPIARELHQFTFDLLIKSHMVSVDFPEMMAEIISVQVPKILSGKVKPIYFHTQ

[3] = tested on: DHT-stimulated RWPE-1 cells; experiment: Immunofluorescence (8OHdG, NLRP3, AR) in DHT-stimulated RWPE-1 cells; format: cell-based, human; conditions: DHT-stimulated RWPE-1, MitoQ 25, 50, 100 μM
Method: (§2) The RWPE-1 cells were cultured in a keratinocyte serum-free medium supplemented with 0.05 mg/mL bovine pituitary extract, 5 ng/mL human recombinant epidermal growth factor, and antibiotic-antimycotic solution (Gibco®, Big Cabin, OK, USA). The cells were cultured in a humidified environment at 37° C. and 5% CO2. The cells were cultured in a serum-free medium to block the effects of autocrine androgens.
Thereafter, the cells were washed and incubated with fluorescein isothiocyanate (FITC)-conjugated anti-mouse or tetramethylrhodamine (TRITC)-conjugated anti-rabbit secondary antibodies. Nuclei were stained with 4′,6-diamidino-2-phenylindole (Life Technologies). Images were captured using an optical microscope (ECLIPSE Ni-U, Nikon, Tokyo, Japan).

[4] = tested on: DHT-stimulated RWPE-1 cells; experiment: ATPase assay in DHT-stimulated RWPE-1 cells; format: cell-based, human; conditions: DHT-stimulated RWPE-1, MitoQ 25, 50, 100 μM, 24 h; FIG. 2E
[5] = tested on: testosterone-induced BPH rat model; experiment: Serum DHT and testosterone measurement (ELISA) in rats with BPH; format: in vivo
Excerpt: (§3) Six-week-old male Sprague-Dawley rats (n=40; 200 +20 g) were purchased from Daehan Biolink Co. (Daejeon, Korea). The animals were randomly allocated, four rats in each cage, and housed in accordance with the guidelines for the care and use of laboratory animals adopted and promulgated by Sangji University according to the requirements established by the National Institutes of Health. All experimental protocols were approved by the Institutional Animal Care and Use Committee (IACUC) of Sangji University before the initiation of the study (IACUC Animal Approval Protocol #2018-18). The rats were acclimatized to laboratory conditions for one week before initiating the experiment.
(§4) The rats in the control group were incised and sutured without removing the testicles following anesthesia using zoletil 50 (intraperitoneal injection, 10 mg/kg). […] Twenty-four hours after the final administration, all rats were euthanized following anesthesia with zoletil 50 (i.p., 20 mg/kg). Blood samples were drawn through cardiac puncture, and serum was obtained via centrifugation and stored at −80° C.
The serum DHT and testosterone levels were quantified using commercial ELISA kits (Cusabio, TX, USA). The assays were performed according to the manufacturer's instructions.

[6] = tested on: DHT-stimulated RWPE-1 cells; experiment: qRT-PCR mRNA expression in DHT-stimulated RWPE-1 cells; format: cell-based, human; conditions: for mRNA level of HO-1 and GPX-1: FIG. 1E
Method: as §2, §1

[7] = tested on: testosterone-induced BPH rat model; experiment: Histological analysis (H&E) of prostate tissue of rats with BPH; format: in vivo; conditions: MitoQ 5, 25 mg/kg/day; Saw 100 mg/kg/day p.o.; FIGS. 4C, 4D
Excerpt: as §3, §4
Prostate tissues from each group were fixed in 4% formalin and embedded in paraffin. The tissues were cut into 4-μm sections. […] The thickness of the epithelium in the prostate tissues was measured using the Leica Application Suite software (LAS ver. 3.3.0, Leica Microsystems, Inc., Buffalo Grove, IL, USA).

[8] = tested on: testosterone-induced BPH rat model; experiment: qRT-PCR mRNA level in prostate of rats with BPH; format: in vivo
Method: as §1, §3, §4

[9] = tested on: DHT-stimulated RWPE-1 cells; experiment: Western blot analysis in DHT-stimulated RWPE-1 cells; format: cell-based, human; conditions: DHT-stimulated RWPE-1, MitoQ 25, 50, 100 μM
Method: as §2
(§5) Total protein was extracted from the RWPE-1 cells and rat prostate tissues, and a western blot analysis was performed. An antibody against AR (Cat. No. sc-7305) was purchased from Santa Cruz Biotechnology, Inc. (TX, USA). Boster Biological Technology (CA, USA) provided an antibody against a prostate-specific antigen (PSA; Cat. No. PB9259). An antibody against caspase-3 (Cat. No. #9661) was purchased from Cell Signaling Technology. Novus Biologicals (CO, USA) provided an antibody against NLRP3 (Cat. No. NBP2-12446). An antibody against IL-1β (Cat. No. 2105) was purchased from Abcam (Cambridge, UK).

[10] = tested on: testosterone-induced BPH rat model; experiment: Testosterone-induced BPH rat model, prostate size and weight; format: in vivo
Excerpt: as §3, §4

[11] = tested on: testosterone-induced BPH rat model; experiment: Western blot of prostate tissue of rats with BPH; format: in vivo
Method: as §5, §3, §4

[12] = tested on: RWPE-1 cells; experiment: CCK-8 assay, viability of MitoQ-treated RWPE-1 cells; format: cell-based, human; conditions: without DHT, 24 h, FIG. 1B
Method: The normal human prostate epithelial cell line, RWPE-1, was obtained from the American Type Culture Collection (Manassas, VA, USA).
as §2
(§6) The cell viability and proliferation were measured using the Cell Counting Kit-8 (CCK-8, Dojindo Molecular Technologies, Inc., D.C., USA). The RWPE-1 cells were plated to 96-well plates (1×10^5 cells/well) and incubated for 24 h. […] After the treatment, the CCK-8 solution was added to each well and incubated for four hours. The number of viable cells was monitored by measuring absorbance at 450 nm using an Epoch microplate reader (Biotek, Winooski, VT, USA).

[13] = tested on: DHT-stimulated RWPE-1 cells; experiment: ATP determination assay in DHT-stimulated RWPE-1 cells; format: cell-based, human; conditions: DHT-stimulated RWPE-1, MitoQ 25, 50, 100 μM, dose-dependent; FIG. 2F
[14] = tested on: DHT-stimulated RWPE-1 cells; experiment: Mitochondrial activity and mtROS levels (MitoTracker, MitoSOX); format: cell-based, human; conditions: DHT-stimulated RWPE-1, 100 μM MitoQ, 24 h; FIG. 1F
[15] = tested on: testosterone-induced BPH rat model; experiment: Immunofluorescence (8-OHdG, NLRP3) of rat prostate tissue; format: in vivo
Method: After deparaffinization and rehydration, rat prostate tissue slides were incubated with anti-mouse 8-OHdG antibodies or anti-rabbit NLRP3 antibodies and visualized with FITC-conjugated anti-mouse and TRITC-conjugated anti-rabbit secondary antibodies, respectively.
The slides were mounted and detected using a Nikon X-Cite-Series 120 Q microscope (Nikon, Japan). The exposure parameters were the same for each sample.
as §3
(§7) The rats in the control group were incised and sutured without removing the testicles following anesthesia using zoletil 50 (intraperitoneal injection, 10 mg/kg). […] Twenty-four hours after the final administration, all rats were euthanized following anesthesia with zoletil 50 (i.p., 20 mg/kg). […]

[16] = tested on: testosterone-induced BPH rat model; experiment: PCNA IHC and qRT-PCR in prostate of rats with BPH; format: in vivo
Method: as §1, §3, §7

[17] = tested on: testosterone-induced BPH rat model; experiment: ROS assay on cells from rat prostate tissue; format: in vivo; conditions: dose-dependent, MitoQ 5 and 25 mg/kg/day; FIG. 5C
Excerpt: as §3, §4
After the male rats were euthanized, the prostate tissues were excised and treated with type I collagenase (Thermo Fisher Scientific, MA, USA) to isolate the cells. […] The cells were incubated for 30 minutes at 37° C. and detected using a Muse® Cell Analyzer (Merck, Darmstadt, Germany).

[18] = tested on: DHT-stimulated RWPE-1 cells; experiment: CCK-8 assay, RWPE-1 cell proliferation under DHT stimulation; format: cell-based, human; conditions: 10 nM DHT, 24 h, FIG. 1C
Method: as §2, §6

Substance: NLRP3 siRNA: siRNA CGUGACAGUCCUUCUGGAA=tt (SEQ ID NO.: 39) and UUCCAGAAGGACUGUCACG=tt (SEQ ID NO.: 40) (3' dTdT overhangs, further chemistry not given here)
- AR level (mRNA) in NLRP3 siRNA-transfected cells [1]: significantly increased
- NLRP3 and IL-1β levels after siRNA transfection ([1]; DHT-stimulated RWPE-1, vs GFP-transfected cells, FIG. 2C): notably suppressed
- NLRP3 mRNA expression after siRNA transfection ([1]; RWPE-1 cells, FIG. 2G): significant decrease

Substance: mitoquinone
- difference between the affinity values of DHT and MitoQ for AR [2]: ~1 kcal/mol
- overexpression of 8OHdG (oxidative stress indicator) ([3]; FIG. 1D): notably suppressed
- NLRP3 protein expression ([3]; FIG. 2A): significantly suppressed
- AR overexpression (protein) ([3]; FIG. 3A): clearly suppressed
- ATPase-specific activity [4]: significantly suppressed
- serum DHT overproduction ([5]; FIG. 7A): significantly suppressed
- circulating (serum) testosterone level ([5]; MitoQ 25 mg/kg, Saw 100 mg/kg/day, FIG. 7E): significantly reduced
- AR level (mRNA) in NLRP3 siRNA-transfected cells [1]: notably downregulated
- NLRP3 level (mRNA) in AR siRNA-transfected cells [1]: significantly suppressed
- mRNA level of HO-1 and GPX-1 ([6]; DHT-stimulated RWPE-1, 100 μM MitoQ): significantly increased
- mRNA expression of NLRP3, PYCARD, and IL-1β ([6]; DHT-stimulated RWPE-1, MitoQ 25, 50, 100 μM, FIG. 2B): significantly reduced
- mRNA level of AR, 5α-reductase 2, and PSA ([6]; DHT-stimulated RWPE-1, MitoQ 25, 50, 100 μM, FIG. 3B): notably inhibited
- mRNA level of HO-1 and GPX-1 ([6]; DHT-stimulated RWPE-1, MitoQ treatment): normalized
- thickened epithelium of prostate tissue [7]: significantly reduced
- mRNA level of HO-1, SOD1, and PGC1α ([8]; FIG. 5D): upregulated
- increased mRNA level of PYCARD and IL-1β ([8]; FIG. 6C): repressed
- mRNA level of 5α-reductase 2, AR, and SRC-1 ([8]; FIGS. 7B, 7C): downregulated
- SOD2 and catalase protein expression ([9]; FIG. 1G): significantly increased
- PSA protein expression ([9]; FIG. 3C): considerably suppressed
- prostate weight (PW/BW ratio) ([10]; MitoQ 5, 25 mg/kg/day, Saw 100 mg/kg/day p.o., vs BPH, FIG. 4B): significant reduction
- prostate size ([10]; MitoQ 5 and 25 mg/kg p.o., four weeks, FIG. 4A): reduced
- overexpression of NLRP3, pro-caspase 1, cleaved caspase 1, and IL-1β proteins ([11]; FIGS. 6D, 6E): suppressed
- expression of catalase and SOD2 (protein) ([11]; vs BPH groups, FIG. 5E): significantly higher
- protein expression of PSA ([11]; vs BPH groups, FIG. 7D): decreased
- concentration of MitoQ suppressing RWPE-1 cell proliferation (viability) [12]: ≥ 25 μM
- ATP level [13]: significantly reduced
- excessive production of mtROS [14]: suppressed
- BPH-upregulated expression of NLRP3 ([15]; FIGS. 6A, 6B): reversed
- intensity of 8-OHdG-positive staining ([15]; vs BPH groups, FIGS. 5A, 5B): significantly lower
- cellular proliferation inhibiting effect compared to Saw ([16]; MitoQ 25 mg/kg/day vs Saw 100 mg/kg/day): superior
- overexpression of PCNA protein and mRNA ([16]; MitoQ 5, 25 mg/kg/day, Saw 100 mg/kg/day p.o., FIGS. 4C, 4E, 4F): clearly suppressed
- intracellular ROS generation in prostate cells [17]: significantly suppressed
- concentration of MitoQ significantly suppressing DHT-stimulated RWPE-1 cell proliferation [18]: ≥ 6.25 μM

Substance: AR siRNA: siRNA CUCUCUUCACAGCCGAAGA=tt (SEQ ID NO.: 41) and UCUUCGGCUGUGAAGAGAG=tt (SEQ ID NO.: 42) (3' dTdT overhangs, further chemistry not given here)
- NLRP3 level (mRNA) in AR siRNA-transfected cells [1]: significantly enhanced

— patent publication US20250205253A1, “PHARMACEUTICAL COMPOSITION FOR PREVENTING OR TREATING BENIGN PROSTATIC HYPERPLASIA” (University-Industry Cooperation Group of Kyung Hee …, priority 2023, published 2025)
